In patent US8901137B2, “Methods of treating cancer using pyridopyrimidinone inhibitors of PI3K and mTOR in combination with autophagy inhibitors” (Exelixis, Inc., priority 2010, dated 2014):

Key:
PDAC cell lines = assay: Apoptosis induction in PDAC cell lines (PI/Annexin V, FACS); assay type: cell-based; settings: representative subset of PDAC cell lines, dual staining with PI and Annexin V, FIG. 1
MiaPaCa2 cells [1] = assay: Induction of apoptosis in MiaPaCa2 cells by FACS analysis; assay type: cell-based; settings: 72 hours, FIG. 2A
MiaPaCa2 cells [2] = assay: Induction of autophagy by acridine orange staining and FACS analysis; assay type: cell-based; settings: FIG. 2B
Description: Occurrence of cytoplasmic vacuoles in tumor cells treated with dual-targeted inhibitors are consistently observed. […] A variety of assays, including LC3-I to LC3-II conversion, acridin orange supravital staining, and MDC staining indicate whether treatment of pancreatic cancer cells with a compound of the invention will induce autophagy.

[3] = test system: Xenograft tumors derived from BxPC3 cells; assay: BxPC3 xenograft tumor growth in nude mice (Biological Example 8A); assay type: in vivo; settings: BxPC3 subcutaneous flank tumors in nude mice, once daily dosing, 30 days; FIG. 4A
Experimental: Whether autophagy inhibition increased the activity of Compound A in vivo was explored. Xenograft tumors derived from BxPC3 cells were grown subcutaneously as flank tumors in nude mice to a size of 150 mm^3. Treatment with Compound A, alone or in combination with choloroquine, was administered for 30 days. Treatment with Compound A along and Compound A in combination with chloroquine was carried out by once daily dosing as indicated. Tumor volume was measured regularly. Tumors were harvested from euthanized mice for protein expression analyses.

BxPC-3 cells = assay: BxPC-3 xenograft tumor growth in Nu/Nu mice (Biological Example 8B); assay type: in vivo; settings: BxPC-3 s.c. in Nu/Nu mice; Compound A 30 mg/kg oral gavage, CQ 50 mg/kg i.p., 5 times/week, 28 days; FIG. 4B
Experimental: Female 7-9 weeks old Nu/Nu mice (Harlan, FoxN 1/nude) were inoculated s.c. with 10^7 BxPC-3 cells. Mice were monitored according to the protocol approved by the University of California, San Francisco Institutional Animal Care and Use Committee. When tumors reached about 100 mm^3, mice were randomly assigned to one of […] treatment groups: vehicle control, Compound A 30 mg/kg, Chloroquine (CQ) 50 mg/kg, Compound A+CQ. Compound A was solubilized in water/10 mM HCl, Compound B was dissolved in water, both drugs were administered by oral gavage once a day 5 times/week. CQ was dissolved in saline and injected i.p daily, 5 times/week. Each treatment regimen was tested in cohorts of eight mice and the dosing was continued for 28 days. Tumor sizes were measured twice weekly in two dimensions using a caliper, tumor size (mm^3) was calculated as (length×width^2)/2. Animals were monitored for toxicity by measuring body weight twice weekly and monitoring overall activity.
Dbata are expressed as means+/−standard deviation. Statistical analysis was performed by using Student's t-test (two-tailed). P values of <0.05 were considered significant.

pancreatic cancer cells = assay: Effect of autophagy inhibitors on autophagy and apoptosis of treated cells; assay type: cell-based
Description: We therefore tested whether inhibitors of autophagy or apoptosis could shift the cellular response from autophagy to apoptosis or vice versa.

Q: `CCn1c(=O)c(-c2ccn[nH]2)cc2c(C)nc(N)nc21` [Compound A] was tested. Which apoptosis induction (PDAC cell lines) did it give?
A: apoptosis induction

Q: And the induction of apoptosis (MiaPaCa2 cells [1])?
A: induction of apoptosis

Q: What about the induction of autophagy (MiaPaCa2 cells [2]) of the same compound?
A: induction of autophagy

Q: And the “tumor growth (tumor volume)” value [3]?
A: no clear growth-inhibitory effect

Q: And the “tumor growth (tumor size)” value (BxPC-3 cells)?
A: no clear growth-inhibitory effect

Q: `Cn1cnc(N)c2ncnc1-2` [Example 3-MA, 3-methyladenine] was tested. Which autophagy (pancreatic cancer cells; autophagy inhibitor added to cells treated with dual-targeted inhibitor, data not shown) did it give?
A: inhibited autophagy

Q: What about the “fraction of cells undergoing apoptosis” value (pancreatic cancer cells; autophagy inhibitor added, FIG. 3: Compound A with or without CQ 5 mM, 72 hours, PI/Annexin-V FACS) of the same compound?
A: significantly increased
